These results are taken from patent US11891387B2, “Monoacylglycerol lipase modulators” (Janssen Pharmaceutica NV, priority 2020, dated 2024).

SMILES strings stand for the structures. pIC50: −log10 of the molar value.

This experiment has as its target human MGL from HeLa cells (Homo sapiens (Human), UniProt Q99685). Kind of experiment: MGL in vitro activity assay: cleavage of [glycerol-1,3-3H]-oleyl glycerol, activated carbon filtration. The format is biochemical. The following applies: 300 nM [Glycerol-1,3-3H]-oleyl glycerol, endogenously expressed MGL from HeLa cells, one hour incubation. Here is the method: The assay used to measure the in vitro activity of MGL is adapted from the assay used for another serine hydrolase (FAAH) described in Wilson et al., 2003 (A high-throughput-compatible assay for determining the activity of fatty acid amide hydrolase. Wilson S J, Lovenberg T W, Barbier A J. Anal Biochem. 2003 Jul. 15; 318(2):270-5.). The assay consists of combining endogenously expressed MGL from HeLa cells with test compounds, adding [glycerol-1,3-^3H]-oleyl glycerol, incubating for one hour, and then measuring the amount of cleaved [1,3-^3H]-glycerol that passes through an activated carbon filter. The amount of cleaved, tritiated glycerol passing through the carbon filter is proportional to the activity of the MGL enzyme in a particular well/test condition.
Standard conditions for this assay combine 300 nM [Glycerol-1,3-^3H]-oleyl glycerol with human MGL from HeLa cells and test compounds for one hour, after which the reaction is filtered through activated carbon and tritium is measured in the flow through. The test compound concentration in screening mode is 10 μM, while the highest compound concentration in IC50 assays is determined empirically. MGL is the predominant hydrolase in HeLa cells/cell homogenates.

Sequence of human MGL from HeLa cells (Q99685 whole entry): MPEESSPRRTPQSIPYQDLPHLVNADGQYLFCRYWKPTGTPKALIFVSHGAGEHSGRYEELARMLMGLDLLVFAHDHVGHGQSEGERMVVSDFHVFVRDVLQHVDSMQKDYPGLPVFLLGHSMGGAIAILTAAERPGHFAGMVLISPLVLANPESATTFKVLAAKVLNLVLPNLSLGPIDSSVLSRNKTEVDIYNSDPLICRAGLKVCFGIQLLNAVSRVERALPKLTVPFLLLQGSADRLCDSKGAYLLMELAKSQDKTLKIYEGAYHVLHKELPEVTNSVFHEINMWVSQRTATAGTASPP

As to `Cc1ccc2c(C(=O)N3[C@@H]4CCC[C@H]3c3nn(C)c(-c5cc(C(F)(F)F)nn5C)c3C4)nccc2n1` [Example 82, (2-Methyl-1,6-naphthyridin-5-yl)((5R,9S)-2-methyl-3-(1-methyl-3-(trifluoromethyl)-1H-pyrazol-5-yl)-4,5,6,7,8,9-hexahydro-2H-5,9-epiminocycloocta[c]pyrazol-10-yl)methanone], the pIC50 is 7.13.

The molecule `C[C@H]1c2nn(C)c(-c3cn(C)nc3C(F)(F)F)c2CCN1C(=O)c1ccc2c(c1)OCCC2` [Example 61, (S)-Chroman-7-yl(2,7-dimethyl-3-(1-methyl-3-(trifluoromethyl)-1H-pyrazol-4-yl)-2,4,5,7-tetrahydro-6H-pyrazolo[3,4-c]pyridin-6-yl)methanone] had a pIC50 of 5.14. The same measure for `Cc1cc2ncsc2cc1C(=O)N1CCc2c(nn(C)c2-c2cc(C(F)(F)F)nn2C)[C@@H]1C` [Example 134, (S)-(2,7-Dimethyl-3-(1-methyl-3-(trifluoromethyl)-1H-pyrazol-5-yl)-2,4,5,7-tetrahydro-6H-pyrazolo[3,4-c]pyridin-6-yl)(5-methylbenzo[d]thiazol-6-yl)methanone]: 7.06; for `COc1cccc(C(=O)N2[C@@H]3CCC[C@H]2c2nn(C)c(-c4cc(C(F)(F)F)n(C)n4)c2C3)c1C` [Example 79, (3-Methoxy-2-methylphenyl)((5R,9S)-2-methyl-3-(1-methyl-5-(trifluoromethyl)-1H-pyrazol-3-yl)-4,5,6,7,8,9-hexahydro-2H-5,9-epiminocycloocta[c]pyrazol-10-yl)methanone]: 7.80. To `C[C@H]1c2nn(C)c(-c3cc(C(F)(F)F)n(C)n3)c2CCN1C(=O)c1cccc2cnn(C)c12` [Example 117, (S)-(2,7-Dimethyl-3-(1-methyl-5-(trifluoromethyl)-1H-pyrazol-3-yl)-2,4,5,7-tetrahydro-6H-pyrazolo[3,4-c]pyridin-6-yl)(1-methyl-1H-indazol-7-yl)methanone] belongs 6.80; to `COc1cccc(C(=O)N2CCc3c(nn(C)c3-c3c(C(F)(F)F)nn(C)c3C)[C@@H]2C)c1C` [Example 3, (S)-(3-(1,5-Dimethyl-3-(trifluoromethyl)-1H-pyrazol-4-yl)-2,7-dimethyl-2,4,5,7-tetrahydro-6H-pyrazolo[3,4-c]pyridin-6-yl)(3-methoxy-2-methylphenyl)methanone], 5.17. To `COc1ccc(C(=O)N2CCc3c(nn(C)c3-c3cc(C(F)(F)F)nn3C)[C@@H]2C)c(C)c1` [Example 40, (S)-(2,7-Dimethyl-3-(1-methyl-3-(trifluoromethyl)-1H-pyrazol-5-yl)-2,4,5,7-tetrahydro-6H-pyrazolo[3,4-c]pyridin-6-yl)(4-methoxy-2-methylphenyl)methanone] belongs 6.64. In the case of `Cc1cc(C(=O)N2CCc3c(nn(C)c3-c3cc(C(F)(F)F)n(C)n3)[C@@H]2C)c2cc(F)ccc2n1` [Example 132, (S)-(2,7-Dimethyl-3-(1-methyl-5-(trifluoromethyl)-1H-pyrazol-3-yl)-2,4,5,7-tetrahydro-6H-pyrazolo[3,4-c]pyridin-6-yl)(6-fluoro-2-methylquinolin-4-yl)methanone], the pIC50 was 7.57. This pIC50 lies 0.93 log units higher than the previous one. Turning to `C[C@H]1c2nn(C)c(-c3cc(C(F)(F)F)nn3C)c2CCN1C(=O)c1cccc2c1OCCC2` [Example 54, (S)-Chroman-8-yl(2,7-dimethyl-3-(1-methyl-3-(trifluoromethyl)-1H-pyrazol-5-yl)-2,4,5,7-tetrahydro-6H-pyrazolo[3,4-c]pyridin-6-yl)methanone], the negative-log IC50 (pIC50) is 7.80. Against the preceding molecule, the pIC50 is 0.23 log units higher.

As to `Cc1cc(C(=O)N2CCc3c(nn(C)c3-c3cc(C(F)(F)F)nn3C)[C@@H]2C)cc2scnc12` [Example 135, (S)-(2,7-Dimethyl-3-(1-methyl-3-(trifluoromethyl)-1H-pyrazol-5-yl)-2,4,5,7-tetrahydro-6H-pyrazolo[3,4-c]pyridin-6-yl)(4-methylbenzo[d]thiazol-6-yl)methanone], the pIC50 is 7.66.

The pIC50 is the negative decadic logarithm of the IC50, by convention in mol/L. Read a low pIC50 as a large IC50.
